Test results: patent US20140243239A1, “MULTIPLEXED KINASE INHIBITOR BEADS AND USES THEREOF” (University of North Carolina at Chapel Hill, priority 2011, published 2014)

Columns and labels:
ERK1/2 [1] = experiment: ERK activity in SUM159-R cells (western blot); assay type: cell-based, human
Protocol: (§1) Detailed methods and antibodies are provided in Supplemental Experimental Procedures.
Generation of AZD6244 resistant SUM159 cells: SUM159 cells were cultured in DMEM/F12 supplemented with 10% FBS media containing 5 μM AZD6244. Media was changed every 2 days, maintaining inhibitor concentrations of 5 μM AZD6244.
(§2) Western blotting: Proteins from cell lysates were separated by SDS-PAGE chromatography, transferred to nitrocellulose membranes, and probed with the indicated primary antibodies. Antibodies recognizing pAKT (S473), pAKT (T308), AURA, pAXL (Y702), AXL, c-Myc, DDR1, EGFR, pERK1/2 (T202/Y204), pHER3 (Y1197), MAX, pMEK1/2 (S217/S221), MEK1/2, MKP3, pP70S6K (T389), pPDGFRβ (Y751), pPDGFRβ (Y1009), pPDGFR (Y857), PDGFRβ, pRAF (S338), pRSK1 (T359/S363), pVEGFR2 (Y1175), VEGFR2 were obtained from Cell Signaling Technology. Antibodies for Cyclin A2, Cyclin B1, Cyclin D1, ERK2, RAF, and pRAF (S259) were obtained from Santa Cruz Biotechnology. The antibody recognizing Bim was obtained from Chemicon. The antibody recognizing p-c-Myc (S62) was obtained from Abeam. Secondary HRP-anti-rabbit and HRP-anti-goat secondary antibodies were from Jackson Immunoresearch Laboratories and Santa Cruz Biotechnology, respectively. Western blots were visualized by incubation with SuperSignal West Pico Chemiluminescent Substrate (Thermo Scientific).

[2] = tested on: kinome (kinase binding to MIBs) of SUM159 cells; experiment: MIB/MS kinome profiling of inhibitor-treated SUM159 cells; assay type: cell-based, human
Source text: Multiplexed inhibitor bead affinity chromatography: Cells and tumors were lysed and harvested as previously described (Oppermann et al., 2009). Oppermann et al., 2009 Mol Cell Proteo 8 1751-1764. Briefly, lysates were brought to 1 M NaCl and passed through columns of washed inhibitor-conjugated beads (bisindoylmaleimide-X, SB203580, lapatinib, dasatinib, purvalanol B, VI16832, PP58) to isolate protein kinases from the lysates (see Supplemental Experimental Procedures for MIBs preparation). Kinase-bound inhibitor beads were washed with high-salt buffer and 0.1% SDS before elution in 0.5% SDS solution in high heat. Proteins were purified using chloroform/methanol extraction, resuspended in 50 mM ammonium bicarbonate (pH 8.0) or 50 mM HEPES (pH 8.0) for SILAC or iTRAQ respectfully. Samples were digested overnight at 37° C. with sequencing grade modified trypsin (Promega). iTRAQ labeling of digested peptides was carried out using iTRAQ 4-plex reagent (AB SCIEX) for 2 hrs at room temperature in the dark. Peptides were dried down, separated using Strong Cation Exchange Spin Columns, Mini and isolated with PepClean C-18 Spin Columns (Thermo Scientific).
LC-MS/MS analysis: MS and MS/MS data were acquired using a MALDI TOF/TOF 5800 (AB SCIEX). Peptides were analyzed using ProteinPilot Software Version 3.0 (AB SCIEX) and identification using UniProtKB/Swiss-Prot database (release Oct. 15, 2009). Proteins were only accepted when at least 1 unique peptide was identified at 99% confidence. ProteinPilot software 3.0 identified and quantified changes in kinase binding to MIBs utilizing the Pro Group Algorithm. […] For each protein ratio reported, a p-value is computed based on Student's t-distribution under the null hypothesis that the protein ratio is 1. MIB/MS analysis with cell lines was done in 2-3 independent experiments. A set of three independent experiments using SILAC labeled SUM159 cells treated with AZD6244 or DMSO was used to assess statistical significance and reproducibility of MIBs/MS to profile kinome response (Supplementary Methods).
Cells were lysed on ice for 20 minutes in lysis buffer containing 50 mM HEPES (pH 7.5), 0.5% Triton X-100, 150 mM NaCl, 1 mM EDTA, 1 mM EGTA, 10 mM sodium fluoride, 2.5 mM sodium orthovanadate, 50 ng/mL calyculin A, 1× protease inhibitor cocktail (Roche), and 1% each of phosphatase inhibitor cocktails 2 and 3 (Sigma). Cell lysate was sonicated (3×10 s) on ice and centrifuged for 15 minutes (13,000 rpm) at 4° C. and the supernatant was collected and syringe-filtered through a […] SFCA membrane. The filtered lysate (approximately 40 mg or protein per experiment) was brought to 1 M NaCl and pre-cleared by flowing over 500 μL of blocked and washed NHS-activated Sepharose 4 Fast Flow beads (GE Healthcare). The flow-through was collected and passed through a column of layered inhibitor-conjugated beads (Bisindoylmaleimide-X (50 μL), SB203580 (50 Lapatinib (100 μL), Dasatinib (100 μL), Purvalanol B (100 μL), VI16832 (100 μL), PP58 (100 4)) to isolate protein kinases from the lysates. Kinase-bound inhibitor beads were washed with 20 mL of high-salt buffer and 10 mL of low-salt buffer, each containing 50 mM HEPES (pH 7.5), 0.5% Triton X-100, 1 mM EDTA, 1 mM EGTA, and 10 mM sodium fluoride, and 1 M NaCl or 150 mM NaCl, respectively. A final wash of 1 mL 0.1% SDS was applied to the columns before elution in 1 mL of a 0.5% SDS solution in high heat. Elutions from all columns were combined and cysteines were alkylated by sequential incubations with DTT (final concentration 5 mM) for 20 minutes at 60° C. and iodoacetamide (final concentration 20 mM) for 30 minutes at room temperature in the dark. The elution was spin-concentrated to 100 μL and detergents were removed by a chloroform/methanol extraction. […]

ERK1/2 [3] = experiment: Western blot of MEK/ERK signaling in SUM159 cells; assay type: cell-based, human; conditions: 15 min-4 h, SUM159 and MDA-MB-231 cells
Source text: as §1, §2

RTKs = experiment: RTK expression in C3Tag tumors (western blot); assay type: in vivo, mouse
Protocol: (§3) Treatment began the same day. Tumor size was assessed twice weekly by caliper measurements of tumor areas ((width)2×length))/2 for 21 days. […] Drugs were incorporated into the diet of mice to achieve a daily dose of AZD6244 20 mg/kg and sorafenib 30 mg/kg. […] Tumors at harvest were cut in half and either snap-frozen in liquid nitrogen and stored at −80° C. or placed in neutral buffered 10% formalin solution.
as §2

ERK = experiment: MEK/ERK activation in C3Tag tumors (western blot); assay type: in vivo, mouse; conditions: AZD6244 20 mg/kg 28 days; sorafenib 30 mg/kg 26 days
Protocol: as §3
as §2, with “Western blots were visualized by incubation with SuperSignal West Pico Chemiluminescent Substrate (Thermo Scientific).” left out

[4] = 5 μM AZD6244, SILAC, TiO2 enrichment of MIB elutions

In the case of `Cn1cnc2c(F)c(Nc3ccc(Br)cc3Cl)c(C(=O)NOCCO)cc21` [AZD6244], the “ERK activation in SUM159-R cells” value (ERK1/2 [1]; 25 μM AZD6244) is reported as “inhibited ERK activation”, the “ERK activity in SUM159-R cells” value (ERK1/2 [1]; 50 μM AZD6244) is reported as “can be inhibited” and the “peptides of MIB isolated kinases with decreased phosphorylation” value [2, 4] is reported as 52 peptides. For the same compound, the “peptides of MIB isolated kinases with increased phosphorylation” value [2, 4] was 59 peptides, the “phosphopeptides of MIB isolated kinases with unchanged phosphorylation status” value [2, 4] was 365 phosphopeptides and the “number of kinases with time-dependent MIB binding changes” value ([2]; 4, 12 and 24 h exposure to AZD6244) was “more than 140 kinases”. The “MEK1 binding to MIBs” value ([2]; 12-24 h, 5 μM AZD6244) was “remains largely inhibited”, the “MEK1 and MEK2, measured by loss of MIB binding” value ([2]; 4 h, 5 μM AZD6244) was “inhibited” and the “MEK2 binding to MIBs, AZD6244/DMSO ratio” value ([2]; 24 h, 5 μM AZD6244) was 1. The “of the 40 highest expressed kinase transcripts of a patient claudin-low tumor, kinases dynamically regulated in binding to MIBs” value ([2]; SUM159 and/or MDA-MB-231 cells in response to AZD6244) was 14 (24%), the “MEK and ERK, early response” value (ERK1/2 [3]) was “rapidly inhibited” and the “expression of RTKs in C3Tag tumors versus untreated” value (RTKs; AZD6244 20 mg/kg 28 days, sorafenib 30 mg/kg 26 days) was “elevated”. For the same compound, the “PDGFRβ expression in C3Tag tumors” value (RTKs; AZD6244 20 mg/kg, 2 and 7 days) was “strongly induced” and the “tumor MEK and ERK compared to untreated animals” value (ERK) was “strongly activated”.
